Results published in US20180235870A1, “TRANSDERMAL FORMULATIONS FOR DELIVERY OF BERBERINE COMPOUNDS, AND THEIR USE IN THE TREATMENT OF BERBERINE-RESPONSIVE DISEASES AND CONDITIONS” (DELIVRA INC., priority 2015, published 2018).

Assays:
[1] = system: male Zucker fa/fa rat, a model of type 2 diabetes and metabolic disorder; test: Efficacy of transdermal berberine alone and in combination with pharmaceuticals in a model of metabolic syndrome (Example 19); assay type: in vivo, obese male Zucker fa/fa rats; details: Zucker fa/fa rats
Procedure: Fourteen obese male Zucker fa/fa rats at 5 weeks of age were housed for five weeks to the age of 10 weeks. During these five weeks, body weight measurements were taken once a week and once daily health observations were conducted for all animals. […] On Day 28, serum and whole liver was collected. […] Food and water intake measurements were taken once a week during the study period of Day 0 to Day 28. […] A sufficient amount of test article was supplied and formulated. Test article product was administered at a dose of 3.6 g/kg twice a day (e.g. […] Berberine cream was weighed fresh daily at each AM and PM dosing to avoid desiccation of the test article. Daily PO and TD dosing of the test articles took place between the hours of 08:00 to 10:00 and 16:00 to 18:00 for 7 days a week between Day 0 to 27. […] The exact time of dosing (up to the minute) was recorded for each animal on the daily dosing sheets. […] Remaining dosing solutions were stored at 4° C. between dosing periods. […] The animals shaved underwemt gaseous anaesthetic according to SOP ROD28.01 to ensure accuracy and avoid undue stress of the animal. The area was further shaven as needed over the course of the dosing period to ensure accurate drug application and absorption. At dosing, the animals were restrained and the transdermal test articles were applied in a uniform layer over the entire shaved area. […] PTS3028).

[2] = system: PCSK9 expression in HEPG2 cells; test: Berberine signaling in HEPG2: PCSK9 western blot of supernatant; assay type: cell-based, human; details: 24 hours; for expression of PCSK9 in supernatant (western blot): 25 to 3.125 ug/ml, versus negative control
Procedure: HEPG2 cells were cultured in 24 well plates to confluence in DMEM supplemented with 10% FBS. After reaching confluence, cells were incubated overnight with 0.1% FBS OPTIMEM for serum starvation. After serum starvation the cells were incubated with berberine, DHB, or THB in 0.1% FBS OPTIMEM using the following dose course: 25 ug/ml, 12.5 ug/ml 6.25 ug/ml 3.125 ug/ml for 24 hours. Supernatant was collected after stimulation and western blotted as follows:
(1) Resolved on 12.5% gel.
(3) Blocked with 3% BSA TBST (4) Rabbit anti PCSK9 (Cayman chemicals cat 10007185) at 1/600 in TTBS (5) Wash 3×5 min with TTBS (6) HRP-Goat anti-Rabbit 1/1000 (Cayman chemicals) (7) Wash 3×5 min with TTBS (8) Detection with ECL
Proprotein convertase subtilisin/kexin type 9 (PCSK9) post-transcriptionally downregulates the low-density lipoprotein receptor (LDLR) by binding to the receptor's epidermal growth factor repeat A on the cell surface and shuttling the LDLR to the lysosomes for degradation. […] Previous reports indicate that berberine has lipid lowering effects in both animal models and human trials (Arrigo F. G., Cicero, L., Rovati C. et al., 2007). The signalling effects of berberine, DHB, and THB were evaluated using the human liver cell line HEPG2. PCSK9, an enzyme that acts in cholesterol homeostasis, is expressed in HEPG2 cells and these cells have previously been used as a model of dyslipidemia. PCSK9 binds to LDL receptor causing uptake of LDL and the LDL receptor and targets both molecules for degradation upon internalization. In the absence of PCSK9, LDL and LDL receptor are still internalized, however, LDL receptor is not degraded but instead recycled to the cell surface resulting in more efficient uptake of circulating LDL.

[3] = rats; cited from earlier work
[4] = Circulating berberine after chronic administration by various routes (Example 23); assay type: in vivo; details: male, rat, plasma, oral, 180 mg/kg/dose; 15 days administration BID, Zucker fa/fa rats
[5] = system: male Zucker rats (fa/fa); test: Efficacy of administration routes and dihydroberberine in a model of metabolic syndrome (Example 22); assay type: in vivo; details: BID
Procedure: This study examined the efficacy of administration of a derivative of berberine (dihydroberberine) in transdermal formulations in 24 male Zucker rats (fa/fa), similar to the study protocol in Example 19. The following formulations were prepared: […] Animals were maintained without treatment until ten weeks of age at which time groups were randomized by weight and blood glucose. Animal weights were recorded daily and expressed here as percent change from Day zero.

[6] = Solubility testing of berberine and dihydroberberine using various solvents; assay type: physicochemical
Procedure: Solubility was determined in a step-wise procedure that involved attempting to dissolve the berberine/DHB in the solvents at relatively high concentrations. […] Then the expected solvent was added to the berberine/DHB. The container was sonicated at RT or at 40C for 30 minutes. The following solvents were tested to dissolve the DHB. Dimethyl sulfoxide (Reagent Grade; […] Lot #STB[…]), and Glycerol tributyrate (Sigma T8626; Lot #BCBQ […]). […] The solubility was visually checked and state of solubility was recorded.

[7] = averaged over the entire experiment
[8] = Glycerol tributyrate, sonication 40 C.
[9] = Glycerol tributyrate, sonication RT
[10] = Isopropyl myristate, sonication 40 C.
[11] = Isopropyl myristate, sonication RT
[12] = Isosorbid-dimethyl ether 98%, sonication RT
[13] = Oleyl alcohol, sonication 40 C.

SMILES: COc1ccc2cc3[n+](cc2c1OC)CCc1cc2c(cc1-3)OCO2 [berberine, Berberine]
- rate of weight gain (grams/day) ([1]; BID, Day 0 to 28, n=2): 3.3 grams/day
- overall triglyceride levels (mmol/L+/−SEM) ([1]; averaged for the entire experiment): 9.5 ± 1.0 mmol/L
- overall HbA1c level change (mmol/mmol+/−SEM) [1, 7]: 31.3+/−0.7 mmol/mmol
- overall average food intake (grams+/−SEM) [1, 7]: 30.8+/−1.5 grams
- overall cholesterol level change (mmol/L+/−SEM) [1, 7]: 5.0 ± 0.3 mmol/L
- overall average glucose change (%+/−SEM) ([1]; non-fasting glucose, averaged over the entire experiment): −24.0+/−0.6%
- concentration down to which expression of PCSK9 was reduced [2]: 6.25 µg/mL
- expression of PCSK9 in supernatant (western blot) [2]: reduce the expression of PCSK9
- expression of PCSK9 in supernatant (western blot) ([2]; listed as Berberine): down-regulate the expression of PCSK9
- bioavailability of orally administered berberine [3]: approximately 0.7%
- concentration at 15 days [4]: 101 ng/mL
- cholesterol levels on Day 14 (mmol/L+/−SEM) [5]: 8.3 ± 0.7 mmol/L
- rate of weight gain (grams/day) [5]: 1.7 grams/day
- triglyceride levels on Day 14 (mmol/L+/−SEM) [5]: 14.8 ± 3.0 mmol/L
- Dissolving Capability ([6]; Ethanol, sonication 40 C.): 40 mg/mL
- State of Solubility ([6]; Ethanol, sonication 40 C.): Suspension
- Dissolving Capability ([6]; Ethanol, sonication RT): 25 mg/mL
- State of Solubility ([6]; Ethanol, sonication RT): Suspension
- Dissolving Capability [6, 8]: 250 mg/mL
- State of Solubility [6, 8]: Suspension
- Dissolving Capability [6, 9]: 50 mg/mL
- State of Solubility [6, 9]: Suspension
- Dissolving Capability [6, 10]: 250 mg/mL
- State of Solubility [6, 10]: Suspension
- Dissolving Capability [6, 11]: 50 mg/mL
- State of Solubility [6, 11]: Suspension
- Dissolving Capability ([6]; Isosorbid-dimethyl ether 98%, sonication 40 C.): 250 mg/mL
- State of Solubility ([6]; Isosorbid-dimethyl ether 98%, sonication 40 C., at the concentration of the same line): Suspension
- Dissolving Capability [6, 12]: 50 mg/mL
- State of Solubility [6, 12]: Suspension
- Dissolving Capability [6, 13]: 250 mg/mL
- State of Solubility [6, 13]: Suspension
- Dissolving Capability ([6]; Oleyl alcohol, sonication RT): 50 mg/mL
- State of Solubility ([6]; Oleyl alcohol, sonication RT): Suspension
- Dissolving Capability ([6]; Water, sonication 40 C.): 50 mg/mL
- State of Solubility ([6]; Water, sonication 40 C.): Suspension
- Dissolving Capability ([6]; Water, sonication RT): 25 mg/mL
- State of Solubility ([6]; Water, sonication RT): Suspension
